# Measured values from paper PMC12339163, “Combining Plant Bioactives With Antibiotics for Enhanced Antibiofilm Activity Against Uropathogenic Staphylococcus spp. and Cytotoxicity Evaluation” (Advances in Pharmacological and Pharmaceutical Sciences, 2025).
# “And” between values parts separate entries of the source, which are not always exact repeats. Identical values can stand only once. Like-named read-outs stand apart in the source and are kept apart here.
# Key:
# Format in all cases: cell-based
# [1] = system: Staphylococcus saprophyticus biofilm; test: Checkerboard combination assay, biofilm eradication
# Method in brief: (§1)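 Biofilms preformed for 24 h were washed and exposed to antibiotics (0.0625–128 µg/mL) combined with NPs (4–512 µg/mL) for 24 h at 37°C in checkerboard format. Viability was read by MTT reduction to set MBEC, and FICI was calculated for the combination.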
# [2] = system: Staphylococcus aureus biofilm; test: as above
# Method in brief: as §1
# Raw 264.7 macrophages = test: Cytotoxicity, MTT assay; settings: Raw 264.7, MTT
# Description: (§2) Two cell lines, including Raw 264.7 macrophages and the urinary epithelial cell line UROtsa obtained from the American Type Culture Collection (Rockville, MD, USA), were used. They were cultured in Dulbecco's modified Eagle's medium (DMEM), which was supplemented with 10% fetal bovine serum (FBS) and 1% penicillin, streptomycin, and fungizone (PSF). They were then grown at 37°C in a humidified environment containing 5% CO2.
# (§3) The cytotoxicity of the selected synergistic combinations, as well as the individual constituents of combinations, against the abovementioned cell lines was performed by the MTT assay as previously described. Briefly, cells from each line were harvested in the logarithmic phase using trypsin (0.05% trypsin, 0.02% EDTA in PBS). Cell suspension was diluted with an appropriate growth medium to obtain a cell density of 10^4 cells/well. A 100 µL aliquot of each suspension was seeded into 96-well cell culture plates and incubated at 37°C in an atmosphere of 5% CO2 and 95% relative humidity. After 24 h of incubation, 100 µL of samples (ATBs and NPs) at concentrations varying from 0.01, 0.1, 1, 10, 100, and 1000, as well as the synergistic combinations (C1 to C5), was added to the wells containing the cells. Doxorubicin was used as a positive control. Appropriate controls with an equivalent concentration of DMSO were also included. Plates were incubated for 48 h, then the medium in each well was aspirated, and MTT solution (2 mg/mL in PBS) was diluted 1:10 with fresh medium and added to each well, and the plates were further incubated at 37°C for 4 h. Absorbance was measured on a BioTek microplate reader at 570 nm. The percentage of cell viability was calculated by comparing treated and untreated cells using the equation [39]:(3) cell viability %=ODtest/ODcontrol×100.
# (§4) Then, the IC50 values of the samples having shown at least 50% inhibition were calculated by plotting the percentage of inhibition against the concentrations.
# [3] = system: UROtsa urinary epithelial cells; test: Cytotoxicity, MTT assay; settings: 48 h
# Description: as §2, §3, §4
# [4] = system: planktonic cells of Staphylococcus epidermidis; test: Checkerboard combination assay, planktonic cells; settings: planktonic S. epidermidis, mean MIC; for MIC alone, ATB: antibiotic alone; for MIC alone, NPs: natural product alone, in µg/mL
# Description: The checkerboard assay, as previously described, was used for the determination of the fractional inhibitory concentration index (FICI). Briefly, 50 µL of MHB was distributed into each well of a 96-well microplate. ATBs were serially diluted along the abscissa, and NPs were serially diluted along the ordinate. Then, 100 µL of bacterial inoculum (1.5 × 10^6 CFU/mL) was added to each well and incubated at 37°C for 24 h. The final concentration ranged from 0.125 to 128 µg/mL for ATBs and 4–512 µg/mL for NPs. After incubation, a volume of 40 µL of INT solution (0.2 mg/mL) was added to each well, and the microplate was incubated at 37°C for 30 min. The wells containing bacterial inoculum and MHB were used as a positive control, while wells containing only MHB + 1% glucose were used as a negative control and used as a blank. Viable bacteria cells change the yellow dye of INT to a pink color. The MICs were considered to be the lowest NP concentrations that prevented the color change medium. Subsequently, the FICI was calculated according to the formula FICI = (MIC of the ATBs in combination/MIC of the ATBs alone) + (MIC of a natural substance in combination/MIC of the natural substance alone). FICI values were interpreted as follows: synergy when FICI ≤ 0.5; additive when 0.5 < FICI ≤ 1; indifference when 1 < FICI ≤ 4; and antagonism when FICI > 4.
# [5] = S. saprophyticus biofilm eradication, antibiotic alone, mean MBEC
# [6] = S. aureus biofilm eradication, antibiotic alone, mean MBEC
# [7] = Mus musculus, RAW264.7, 48 h, read-out: IC50
# [8] = Epithelial cell, read-out: IC50
# [9] = S. saprophyticus, biofilm eradication, mean
# [10] = S. aureus, biofilm eradication, mean
smiles,measurement,setting,value
"CC1(C)S[C@@H]2[C@H](NC(=O)[C@H](N)c3ccc(O)cc3)C(=O)N2[C@H]1C(=O)O [Amoxicillin, amoxicillin]",MBEC Alone ATB,[1]; [5],9.33 µg/mL
same,MBEC Alone ATB,[2]; [6],37.33 µg/mL
same,IC50,Raw 264.7 macrophages; [7],> 1000 µg/mL
same,IC50,Raw 264.7 macrophages; 48 h,— (IC50 > 1000 µg/mL)
same,IC50,[3],— (IC50 > 1000 µg/mL)
same,IC50,[3]; [8],> 1000 µg/mL
same,"MIC alone, ATB",[4],26.8 µg/mL
"O=c1c(O)c(-c2ccc(O)c(O)c2)oc2cc(O)cc(O)c12 [Quercetin, quercetin]","MIC alone, NPs",[4]; listed as Que,512 and 362.66
"C=CC1=C(C(=O)O)N2C(=O)[C@@H](NC(=O)/C(=N\OCC(=O)O)c3csc(N)n3)[C@H]2SC1 [Cefixime, cefixime]",MBEC Alone ATB,[1]; [5],48 µg/mL
same,MBEC Alone ATB,[1]; [9],48 µg/mL
same,MBEC Alone ATB,[2]; [6],42.66 µg/mL
same,IC50,Raw 264.7 macrophages; 48 h,473.83 µg/mL
same,IC50,[3],— (IC50 > 1000 µg/mL)
same,IC50,[3]; [8],> 1000 µg/mL
same,"MIC alone, ATB",[4],107 µg/mL
"NC[C@H]1O[C@H](O[C@H]2[C@H](O)[C@@H](O[C@H]3O[C@H](CO)[C@@H](O)[C@H](N)[C@H]3O)[C@H](N)C[C@@H]2N)[C@H](O)[C@@H](O)[C@@H]1O [Kanamycin, kanamycin]",MBEC Alone ATB,[1]; [5],10.66 µg/mL
same,MBEC Alone ATB,[2]; [6],14.66 µg/mL
same,IC50,Raw 264.7 macrophages; 48 h,— (IC50 > 1000 µg/mL)
same,IC50,[3],— (IC50 > 1000 µg/mL)
same,"MIC alone, ATB",[4],7.33 µg/mL
"C[C@H]1c2cccc(O)c2C(=O)C2=C(O)[C@]3(O)C(=O)C(C(N)=O)=C(O)[C@@H](N(C)C)[C@@H]3[C@@H](O)[C@@H]21 [Doxycycline, doxycycline]",MBEC Alone ATB,[1]; [5],9.33 µg/mL
same,MBEC Alone ATB,[2]; [6],16 µg/mL
same,"MIC alone, ATB",[4],7 µg/mL
"Cc1nnc(SCC2=C(C(=O)O)N3C(=O)[C@@H](NC(=O)Cn4cnnn4)[C@H]3SC2)s1 [Cefazolin, cefazolin]",MBEC Alone ATB,[1]; [5],10.66 µg/mL
same,MBEC Alone ATB,[1]; [9],48 µg/mL
same,MBEC Alone ATB,[2]; [6],42.66 µg/mL
same,MBEC Alone ATB,[2]; [10],42.66 µg/mL
same,IC50,Raw 264.7 macrophages; [7],> 1000 µg/mL
same,IC50,Raw 264.7 macrophages; 48 h,504.26 µg/mL
same,IC50,[3],— (IC50 > 1000 µg/mL)
same,IC50,[3]; [8],> 1000 µg/mL
same,"MIC alone, ATB",[4],42.7 µg/mL
"NCC[C@H](O)C(=O)N[C@@H]1C[C@H](N)[C@@H](O[C@H]2O[C@H](CN)[C@@H](O)[C@H](O)[C@H]2O)[C@H](O)[C@H]1O[C@H]1O[C@H](CO)[C@@H](O)[C@H](N)[C@H]1O [Amikacin, amikacin]",MBEC Alone ATB,[1]; [5],13.33 µg/mL
same,MBEC Alone ATB,[2]; [6],13.33 µg/mL
same,MBEC Alone ATB,[2]; [10],13.33 µg/mL
same,IC50,Raw 264.7 macrophages; [7],> 1000 µg/mL
same,IC50,Raw 264.7 macrophages; 48 h,— (IC50 > 1000 µg/mL)
same,IC50,[3],— (IC50 > 1000 µg/mL)
same,IC50,[3]; [8],> 1000 µg/mL
same,"MIC alone, ATB",[4],1.16 µg/mL
"CC1=CC(=O)c2c(O)cccc2C1=O [Plumbagin, plumbagin]",MBEC Alone NPs,[1]; [9],10.66 µg/mL
"COc1ccc2cc3[n+](cc2c1OC)CCc1cc2c(cc1-3)OCO2 [Berberine, berberine]",MBEC Alone NPs,"[1]; S. saprophyticus biofilm eradication, natural product alone, mean MBEC, listed as Ber",128 µg/mL and 85.33 µg/mL and 106.66 µg/mL and 170.66 µg/mL
same,MBEC Alone NPs,[1]; [9],128 µg/mL
same,MBEC Alone NPs,[2]; [10],149.33 µg/mL
"Cc1ccc(C(C)C)c(O)c1 [Thymol, thymol]",MBEC Alone NPs,[1]; [9],128 µg/mL
same,IC50,Raw 264.7 macrophages; [7],442 µg/mL
same,IC50,[3]; [8],> 1000 µg/mL
same,"MIC alone, NPs",[4],426.66
"O=C(O)c1cc(O)c(O)c(O)c1 [Gallic acid, 3,4,5-trihydroxybenzoic acid]",MBEC Alone NPs,"[2]; S. aureus biofilm eradication, natural product alone, mean MBEC",298.66 µg/mL
same,"MIC alone, NPs",[4]; listed as Gal,426.66 and 277.33
"CC[C@H]1OC(=O)[C@H](C)[C@@H](O[C@H]2C[C@@](C)(OC)[C@@H](O)[C@H](C)O2)[C@H](C)[C@@H](O[C@@H]2O[C@H](C)C[C@H](N(C)C)[C@H]2O)[C@](C)(O)C[C@@H](C)C(=O)[C@H](C)[C@@H](O)[C@]1(C)O [Erythromycin, erythromycin]",MBEC Alone ATB,[1]; [5],29.33 µg/mL
same,MBEC Alone ATB,[1]; [9],29.33 µg/mL
same,MBEC Alone ATB,[2]; [6],44 µg/mL
same,"MIC alone, ATB",[4],32.7 µg/mL
"COc1cc(/C=C/C(=O)CC(=O)/C=C/c2ccc(O)c(OC)c2)ccc1O [Curcumin, curcumin]",MBEC Alone NPs,"[1]; S. saprophyticus biofilm eradication, natural product alone, mean MBEC, listed as Cur",170.66 µg/mL and 213.33 µg/mL
same,MBEC Alone NPs,"[2]; S. aureus biofilm eradication, natural product alone, mean MBEC, listed as Cur",128 µg/mL and 149.33 µg/mL and 170.66 µg/mL and 106.66 µg/mL
same,MBEC Alone NPs,[2]; [10],277.33 µg/mL
same,IC50,Raw 264.7 macrophages; [7],94.4 µg/mL
same,IC50,[3]; [8],51.9 µg/mL
same,"MIC alone, NPs",[4],384
